Patent EP1103270B1, “TREATMENT OF AUTOIMMUNE DISEASES IN MAMMALS” (UNIVERSIDAD COMPLUTENSE DE MADRID, priority 1999, dated 2000)

How the values were obtained:
[1] = test system: TNFα; test: Production of TNFα in peritoneal murine macrophages stimulated with LPS, in vitro; assay type: cell-based
Protocol: (§1) • Figure 1 represents the production of TNFα by murine macrophages in culture (5x10^5 cells/ml) stimulated with 10ngr/ml of LPS in the presence or absence of 10^-8M of VIP or ACHPA during the course of 24 hours. • Figure 2 represents the production of TNFα by murine macrophages in culture (5x10^5 cells/ml) after 6 hours of culture with 10ngr/ml of LPS and to which 10^-8M of VIP or ACHPA are added at different times. • Figure 3 represents the production of IL-6 by murine macrophages in culture (5x10^5 cells/ml) stimulated with 10ngr/ml of LPS in the presence or absence of 10^-8M of VIP or ACHPA during the course of 24 hours. • Figure 4 represents the production of IL-6 by murine macrophages in culture (5x10^5 cells/ml) after 6 hours of culture with 10ngr/ml of LPS and to which 10^-8M of VIP or ACHPA are added at different times. • Figure 5 presents the Northern Blot analysis for the presence of mRNA of TNFα and IL-6 in macrophages stimulated with LPS in the presence or absence of VIP or ACHPA (18S represents the corresponding rRNA as total quality control of loaded RNA). • Figure 6 represents the survival in mice injected with 400µgr of LPS and, simultaneously, or after 30 minutes, 1 or 4 hours, with 5 nmol of VIP or ACHPA.
In experiments carried out "in vitro" VIP and ACHPA inhibit the production of TNFα in peritoneal murine macrophages stimulated with LPS. […]

[2] = test system: TNFα; test: Circulating levels of TNFα in mice after injection of LPS; assay type: in vivo; conditions: 2 hours after injection of 25 µgr of LPS, simultaneous administration of 5 nmol
Protocol: In an experiment carried out with mice the circulating levels of TNFα 2 hours after injection of 25 µgr of LPS were approximately 4 ngr./ml. Simultaneous administration of 5 nmol of VIP or ACHPA reduced said levels by 60%.

[3] = test system: IL-6; test: Production of IL-6 in peritoneal murine macrophages stimulated with LPS, in vitro; assay type: cell-based
Protocol: In experiments carried out " in vitro" VIP and ACHPA inhibit the production of IL-6 in peritoneal murine macrophages stimulated with LPS. Most of the inhibition reaches values near to 90% and occurs with doses of stimulation of 10 µgr./ml of LPS. […] The inhibitory effect is also observed if the neuropeptides are added after stimulation with LPS, although the degree of inhibition is progressively smaller (see Figure 4).

[4] = test system: IL-6; test: Circulating levels of IL-6 in mice after injection of LPS; assay type: in vivo; conditions: two hours after injection of 25 µgr. of LPS, simultaneous administration of 5nmol
Source text: In an experiment carried out in mice the circulating levels of IL-6 two hours after injection of 25 µgr. of LPS were approximately 1.5 ngr./ml. The simultaneous administration of 5nmol of VIP or ACHPA reduced said levels by 60% and 75%, respectively.

[5] = test system: mRNA of TNFα; test: Northern Blot for mRNA of TNFα in macrophages activated with LPS; assay type: cell-based, rat; conditions: macrophages activated with LPS and exposed to the peptide; Figure 5
Protocol: as §1
(§2) Macrophages from rat were submitted to the experimental conditions described in examples 1 and 3 and their mRNA was isolated. […]

[6] = test system: mRNA of IL-6; test: Northern Blot for mRNA of IL-6 in macrophages activated with LPS; assay type: cell-based, rat; conditions: macrophages activated with LPS and exposed to the peptide; Figure 5
Protocol: as §1, §2

[7] = Survival of mice injected with a lethal dose of LPS (endotoxic shock); assay type: in vivo; conditions: mice injected with 400µgr of LPS
Protocol: as §1
An experiment was carried out in which the long-term survival over a period of 4 days was studied for mice injected with 400µgr of LPS. […]

[8] = test system: IL-4 producing cells; test: Number of IL-4 producing cells (ELISPOT) in spleen and peritoneum of KLH-immunised mice; assay type: in vivo; conditions: 5 nmol/mouse with second KLH injection, spleen and peritoneum cells two weeks later
[9] = test system: anti-KLH antibodies; test: Isotype of serum anti-KLH antibodies (ELISA) in KLH-immunised mice; assay type: in vivo; conditions: 5 nmol/mouse with second KLH injection, serum two weeks after the last immunisation

## adenylate cyclase hypophysary peptide activator [ACHPA]
[1]; peritoneal murine macrophages stimulated with LPS, read-out: IC50 (inhibition of the production of TNFα)
  IC50: 80 pM
[1]; peritoneal murine macrophages, stimulation with 1-10 ngr./ml of LPS
  greatest degree of inhibition of the production of TNFα: ~60%
[2]
  reduction of circulating levels of TNFα: 60%
[3]; peritoneal murine macrophages stimulated with LPS, read-out: IC50 (inhibition of the production of IL-6)
  IC50: 8.6 pM
[3]; peritoneal murine macrophages, stimulation with 10 µgr./ml of LPS
  inhibition of the production of IL-6 (most of the inhibition): ~90%
[4]
  reduction of circulating levels of IL-6: 75%
[5]
  transcripts for TNFα (Northern Blot): absence of transcripts
[6]
  transcripts for IL-6 (Northern Blot): absence of transcripts
[7]; administration up to 1 hour after injection with LPS
  survival rates: ~50%
[7]; simultaneous administration of 5 nmol, period of 4 days
  survival at the end of the experiment: 60%
[8]
  increase in the number of IL-4 producing cells compared to untreated mice: ~20 times
[9]
  isotype of anti-KLH antibodies detectable in serum: only of the IgGl isotype
